Data on 14 compounds can be found in patent US5434132A, “Neuropeptide antagonists” (Imperial Cancer Research Technology, Ltd., priority 1988, dated 1995).

Like-named read-outs stand apart in the source and are kept apart here. Non-standard residues stand in square brackets, D forms with d. Residues, ends and D or L forms follow the SMILES beside them.

Test [1] addresses T1, bombesin/GRP receptor (Mus musculus, UniProt P21729).
T1 construct: Membrane protein (150 μg) prepared from Swiss 3T3 cells as described above; endogenous in cells; host or cells: Swiss 3T3 cells; membrane-enriched fraction prepared with 5 mM Mg2+
Description: 125I-GRP binding to membrane preparations of Swiss 3T3 cells. On the set-up: species or system murine. How it is done:
Membrane preparation: Cultures in roller bottles were washed twice with 150 ml phosphate buffered saline (PBS) (0.14M NaCl, 5 mM KCl, 0.01M Na2 HPO4, 1.8 mM KH2 PO4; pH 7.2) at room temperature. The cells were then harvested at 4° C. by scraping into ice cold PBS containing 5 mM MgCl2, 1 mM [ethylenebis(oxyethylenenitrilo)]tetraacetic acid (EGTA), 1 mg/ml bacitracin, 10 ug/ml aprotonin, 1 mg/ml soybean trypsin inhibitor and 50 μM phenylmethylsulphonyl fluoride. All subsequent steps were carried out at 4° C. The cells were pelleted by centrifugation at 750 x g for 10 minutes and resuspended 5×10^6 /ml in solution A containing 50 mM 4-(2-Hydroxyethyl)-1-piperazineethanesulfonic acid (Hepes), 5 mM MgCl2, 1 mM EGTA, 1 mg/ml bacitracin, 10 μg/ml aprotonin, 1 mg/ml soybean trypsin inhibitor and 50 μM phenylmethylsulfonyl fluoride, adjusted to pH 7.4 with NaOH at 4° C. Cells were then disrupted using a Dounce homogeniser (A pestle) 75 strokes. The homogenate was centrifuged at 500 x g for 10 minutes to remove nuclear material and intact cells and the supernatant was centrifuged again at 30000 x g for 30 minutes. The resulting pellet, representing a membrane-enriched preparation was resuspended at a protein concentration of 5 to 10 mg/ml in solution A and stored in liquid nitrogen. For experiments, membranes were thawed and diluted to a concentration of 1 mg/ml with solution A.
Receptor binding assay: Binding assays were carried out in a total volume of 100 ul in binding medium containing 50 mM Hepes, 5 mM MgCl2, 1 mg/ml bacitracin and 1% bovine serum albumin (BSA), adjusted to pH 7.4 with NaOH, unless otherwise indicated. […] Non-specific binding was subtracted from the total binding to obtain specific binding. The membranes were incubated for either 10 minutes at 37° C. or 30 minutes: at 15° C. as indicated.
The binding reactions were terminated at the specified times by rapid filtration on GF/B glass fibre filters (Whatmann, 1.0 μm pore size). Each filter was washed five times with 5 ml of PBS containing 1% BSA at 4° C. (15 s total time) using a Millipore filtration apparatus. Before the addition of membranes the filters were soaked for 24 hours in 5% polyethylenimine at 4° C. and washed with 5 ml of PBS containing 1% BSA immediately prior to use. […] Radioactivity was determined with a Beckmann γ-counter.
When 1n[(Beq - Bt)/(BoLo - Beq Bt)]is plotted as a function of time k1 can be determined from the slope by the following relation k1 =slope x [Beg/(Beg^2 - BoLo)](36) where Bo and Lo are the initial concentrations of receptor and ligand respectively. Bt is the concentration of receptor-ligand complex at time t and Beg is its concentration at equilibrium. Equation (1) takes into account the decrease in free ligand concentration that occurs during the binding reaction.
The first order rate constant of dissociation was determined from the slope of the line obtained by plotting ln(Bt/Beg) as a function of time.
The reactions were terminated and specific binding determined as described in "Experimental Procedures".

Test [2] addresses T2, Mr 75,000-85,000 protein (Mus musculus, UniProt P21729).
T2 construct: Membrane protein (150 μg) prepared from Swiss 3T3 cells as described above; endogenous in cells; host or cells: Swiss 3T3 cells; membrane-enriched fraction prepared with 5 mM Mg2+
Description: Chemical cross-linking (EGS) of 125I-GRP to the Mr 75,000-85,000 protein in Swiss 3T3 membranes. In kind it is binding, murine. Particulars: for 125I-GRP affinity labelling of the Mr 75,000-85,000 protein: 0.5 nM 125I-GRP, 37° C., 10 minutes, None 100. As to the method: BSA was omitted from all solutions used in the cross-linking studies. At the end of the incubation the membranes were centrifuged at 1000 rpm for 1 minute in a MSE microfuge at room n temperature. The pellets were then resuspended in cross-linking medium containing 4 mM of the cross-linking reagent (EGS) and incubated at 37° C. or 15° C. for 5 minutes or 15 minutes respectively. The reaction was terminated by centrifugation for 1 minute followed by one wash with cross-linking medium and centrifugation. Samples were solubilised in 0.20 ml of 2× sample buffer, (0.2 M Tris-HCl pH 6.8, 10% (w/v) glycerol, 6% sodium dodecyl sulphate (SDS) (w/v), 4% β-mercaptoethanol (v/v), and 2 mM EDTA), immediately heated to 100° C. for 10 minutes and analysed by one dimensional electrophoresis.
SDS-Polyacrylaaide Gel glectrophoresis: Slab gel electrophoresis was performed using 8% acrylamide in the separating gel and 4% in the stacking gel and 0.1% SDS (37). After electrophoresis gels were stained, desrained and dried down onto paper for autoradiography with Fuji x-ray film. Dried gels were exposed for 2-4 days at -70° C. Autoradiograms were scanned using an LKB ultrascan XL densitometer; and the incorporation of radioactivity into the Mr 75,000-85,000 band was quantified using the Ultroscan XL internal digital integrator.
Following incubation at 37° C. for 10 minutes the membranes were pelleted by centrifugation and chemical cross-linking carried out as described in "Experimental Procedures" using 4 mM EGS. The samples were analyzed by SDS-PAGE and scanning densitometry of the autoradiograms as described in "Experimental Procedures".

The subject of test [3] is small cell lung cancer (SCLC) cell lines. The test is described as follows: Growth in vitro of small cell lung cancer (SCLC) cell lines. The note with it: 5 of 5 cell lines tested: H69, H82, H128, H417 and UCH25.
Test [4] concerns the target T3, vasopressin receptor (Mus musculus, UniProt Q62463).
T3 construct: endogenous in cells; host or cells: Swiss 3T3 cells
Particulars: references 4,12,13; cited from earlier work.

Test [5] relates to Swiss 3T3 cells.
Test [6] has as its system Swiss 3T3 cells. The note with it: references 4,12,13; cited from earlier work.
Where [7] appears, read: addition at 1μM, 0.5 nM 125I-GRP, 37° C., 10 minutes, None 305 ± 9, mean±SEM, n=3.
[8] abbreviates: 10 min, read-out: 125I-GRP affinity labelling of the Mr 75,000-85,000 protein.
Where [9] appears, read: 0.5 nM 125I-GRP, 15° C., 30 minutes.

T1 sequence (P21729 whole entry): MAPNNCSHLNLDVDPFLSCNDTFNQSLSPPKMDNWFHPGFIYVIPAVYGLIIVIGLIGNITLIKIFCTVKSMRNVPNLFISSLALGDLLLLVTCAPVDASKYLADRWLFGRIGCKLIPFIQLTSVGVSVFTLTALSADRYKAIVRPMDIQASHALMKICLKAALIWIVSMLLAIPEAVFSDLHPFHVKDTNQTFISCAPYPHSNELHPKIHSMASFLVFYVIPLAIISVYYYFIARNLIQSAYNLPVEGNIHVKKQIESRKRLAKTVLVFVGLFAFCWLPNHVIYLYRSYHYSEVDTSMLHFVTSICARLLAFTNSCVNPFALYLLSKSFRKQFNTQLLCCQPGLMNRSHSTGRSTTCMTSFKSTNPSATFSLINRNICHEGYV
T2 sequence (P21729 whole entry): as above
T3 sequence (Q62463 whole entry): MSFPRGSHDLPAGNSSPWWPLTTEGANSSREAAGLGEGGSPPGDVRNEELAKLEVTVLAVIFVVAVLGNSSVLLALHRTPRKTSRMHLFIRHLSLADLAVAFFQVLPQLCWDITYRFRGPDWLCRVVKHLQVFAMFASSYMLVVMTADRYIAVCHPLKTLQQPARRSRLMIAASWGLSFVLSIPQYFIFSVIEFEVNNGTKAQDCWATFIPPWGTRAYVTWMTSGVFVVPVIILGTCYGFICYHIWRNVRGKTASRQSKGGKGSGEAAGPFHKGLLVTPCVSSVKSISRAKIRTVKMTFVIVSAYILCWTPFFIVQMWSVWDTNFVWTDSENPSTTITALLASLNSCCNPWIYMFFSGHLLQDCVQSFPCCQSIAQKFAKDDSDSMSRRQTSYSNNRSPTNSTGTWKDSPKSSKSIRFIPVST

Consider `C[C@H](N)C(=O)NCC(=O)N[C@H]1CSSC[C@@H](C(=O)O)NC(=O)[C@H](CO)NC(=O)[C@H]([C@@H](C)O)NC(=O)[C@H](Cc2ccccc2)NC(=O)[C@H]([C@@H](C)O)NC(=O)[C@H](CCCCN)NC(=O)[C@H](Cc2c[nH]c3ccccc23)NC(=O)[C@H](Cc2ccccc2)NC(=O)[C@H](Cc2ccccc2)NC(=O)[C@H](CC(N)=O)NC(=O)[C@H](CCCCN)NC1=O` [Somatostatin, somatostatin], for which the “specific binding of 125I-GRP to membranes” value in test [1] (setting [7]) turned out to be 308 ± 8 fmole/mg protein.
For the compound litorin, the “125I-GRP affinity labelling of the Mr 75,000-85,000 protein” value (shortened to “125I-GRP affinity labelling”) in test [2] (addition at 100 nM) was 3 ± 1 % of maximum. The “inhibition of specific binding of 125I-GRP to membrane preparations” value in test [1] (concentration-dependent manner) was “inhibited”.
As for `CSCC[C@H](NC(=O)[C@H](Cc1ccccc1)NC(=O)[C@H](Cc1cnc[nH]1)NC(=O)CNC(=O)[C@@H](NC(=O)[C@H](C)NC(=O)[C@H](Cc1c[nH]c2ccccc12)NC(=O)[C@H](CC(C)C)NC(=O)[C@H](CC(N)=O)NC(=O)CN)[C@@H](C)O)C(N)=O` [neuromedin B], the remaining activity at 1 µM in test [2] (setting [8]) was found to be 7 ± 2%. In addition, the IC50 in test [1] amounted to 0.18 µM.
As to `NC(=O)CC[C@@H]1NC(=O)[C@H](Cc2ccccc2)NC(=O)[C@H](Cc2ccc(O)cc2)NC(=O)[C@@H](N)CSSC[C@@H](C(=O)N2CCC[C@H]2C(=O)N[C@@H](CCCN=C(N)N)C(=O)NCC(N)=O)NC(=O)[C@H](CC(N)=O)NC1=O` [Vasopressin, vasopressin], the remaining activity at 1 µM in test [2] (setting [8]) worked out at 102 ± 1%. Moreover, the “specific binding of 125I-GRP to membranes” value in test [1] (setting [7]) is on record as 353 ± 10 fmole/mg protein.
Regarding Insulin: insulin purchased from Sigma, the “125I-GRP affinity labelling” value in test [2] (addition at 1.5 μM) was 113 ± 3 % of maximum. In addition, in test [1] (addition at 1.5 μM, 0.5 nM 125I-GRP, 37° C., 10 minutes, None 305 ± 9), the “specific binding of 125I-GRP to membranes” value worked out at 332 ± 6 fmole/mg protein.
Turning to `CCCC(=O)O[C@@H]1[C@@H](C)[C@@]2(O)[C@@H](C=C(CO)C[C@]3(O)C(=O)C(C)=C[C@@H]23)[C@@H]2C(C)(C)[C@]12OC(=O)CCC` [PBt2, phorbol 12,13-dibutyrate], the “125I-GRP affinity labelling” value in test [2] (addition at 400 nM) was 111 ± 2 % of maximum. The “specific binding of 125I-GRP to membranes” value in test [1] (addition at 400 nM, 0.5 nM 125I-GRP, 37° C., 10 minutes, None 305 ± 9) was 305 ± 9 fmole/mg protein.
For the compound “PDGF: Recombinant platelet derived growth factor c-sis”, the “125I-GRP affinity labelling” value in test [2] (addition at 15 nM) is recorded as 104 ± 1 % of maximum. In addition, in test [1] (addition at 15 nM, 0.5 nM 125I-GRP, 37° C., 10 minutes, None 305 ± 9), the “specific binding of 125I-GRP to membranes” value was found to be 341 ± 9 fmole/mg protein.
As for vasoactive intestinal peptide [VIP], the “specific binding of 125I-GRP to membranes” value in test [1] (setting [7]) is 353 ± 10 fmole/mg protein.
In test [1] (setting [9]), `CC(C)C[C@H](NC(=O)[C@H](CC(C)C)NC(=O)[C@@H](Cc1c[nH]c2ccccc12)NC(=O)[C@H](Cc1ccccc1)NC(=O)[C@@H](Cc1c[nH]c2ccccc12)NC(=O)[C@H](CCC(N)=O)NC(=O)[C@@H](Cc1ccccc1)NC(=O)[C@@H]1CCCN1C(=O)[C@H](CCCCN)NC(=O)[C@@H]1CCCN1C(=O)[C@H](N)CCCN=C(N)N)C(N)=O` [antagonist D, D-Arg-Pro-Lys-Pro-D-Phe-Gln-D-Trp-Phe-D-Trp-Leu-Leu-NH2] (H-[dR]PKP[dF]Q[dW]F[dW]LL-NH2) came in with a concentration for half-maximal inhibition (IC50) of 7 µM.
For `CC(C)C[C@H](NC(=O)[C@H](CC(C)C)NC(=O)[C@@H](Cc1c[nH]c2ccccc12)NC(=O)[C@H](Cc1ccccc1)NC(=O)[C@@H](Cc1c[nH]c2ccccc12)NC(=O)[C@H](CCC(N)=O)NC(=O)[C@H](CCC(N)=O)NC(=O)[C@@H]1CCCN1C(=O)[C@H](CCCCN)NC(=O)[C@H]1CCCN1C(=O)[C@H](N)CCCNC(=N)N)C(N)=O` [antagonist A, D-Arg-D-Pro-Lys-Pro-Gln-Gln-D-Tro-Phe-D-Trp-Leu-Leu-NH2] (H-[dR][dP]KPQQ[dW]F[dW]LL-NH2), the “concentrations effective in inhibiting growth of SCLC” value in test [3] fell in the range of 50 to 150 µM. For the same compound, the “inhibition of [3H]vasopressin binding” value in test [4] is “inhibit”. Besides, the half-inhibitory concentration (IC50) in test [5] amounted to 90 µM; in test [1] (setting [9]), 38 µM. The “inhibition of vasopressin-stimulated DNA synthesis” value in test [6] is reported as “inhibit”.
For the compound `CSCC[C@H](NC(=O)[C@H](CC(C)C)NC(=O)[C@H](Cc1cnc[nH]1)NC(=O)CNC(=O)[C@@H](NC(=O)[C@H](C)NC(=O)[C@H](Cc1c[nH]c2ccccc12)NC(=O)[C@H](CCC(N)=O)NC(=O)[C@H](CC(N)=O)NC(=O)CNC(=O)[C@H](CC(C)C)NC(=O)[C@H](CCCN=C(N)N)NC(=O)[C@H](CCC(N)=O)NC(=O)[C@@H]1CCC(=O)N1)C(C)C)C(N)=O` [bombesin], the remaining activity at 0.1 µM in test [2] (setting [8]) was determined as 5 ± 1%. In addition, in test [1], the “specific binding of 125I-GRP to membranes” value stood at 7 ± 0.2 fmole/mg protein.
Consider `CSCC[C@H](NC(=O)[C@H](CC(C)C)NC(=O)[C@H](Cc1cnc[nH]1)NC(=O)CNC(=O)[C@@H](NC(=O)[C@H](C)NC(=O)[C@@H](N)Cc1c[nH]c2ccccc12)C(C)C)C(N)=O` [bombesin (8-14)], for which the remaining activity at 10 µM in test [2] (setting [8]) is 5 ± 2%. The same compound gave a concentration for half-maximal inhibition (IC50) in test [1] of 4 µM.
As to EGF: epidermal growth factor, the “125I-GRP affinity labelling” value in test [2] (addition at 40 nM) is on record as 108 ± 1 % of maximum. Besides, the “specific binding of 125I-GRP to membranes” value in test [1] (addition at 40 nM, 0.5 nM 125I-GRP, 37° C., 10 minutes, None 305 ± 9) is 305 ± 6 fmole/mg protein.
substance K: in test [1] (setting [7]), the “specific binding of 125I-GRP to membranes” value is 314 ± 5 fmole/mg protein.

The term IC50 denotes the concentration needed to halve the response being measured.
